# Like-named read-outs stand apart in the source and are kept apart here.
# Columns and labels:
# An. gambiae AChE = target: T1, An. gambiae AChE (Anopheles gambiae, UniProt Q869C3); assay: AChE assay (modified Ellman assay), mosquito homogenate; type: biochemical
# T1 construct: Mosquitoes from the four Anopheles colonies were separately homogenized in Na2HPO4, 1% Triton X-100 (pH 8.0) and used as an enzyme source; from tissue; host or cells: whole mosquito homogenate (An. gambiae colony)
# Protocol: (§1) Mosquitoes from the four Anopheles colonies were separately homogenized in Na2HPO4, 1% Triton X-100 (pH 8.0) and used as an enzyme source. Protein content was assessed using the standard Lowry protein assay. The incubation mixture in a 96-well plate consisted of 20 μl of the enzyme in 132 μL of the assay buffer (Na2HPO4, 1% Triton X-100; pH 8.0). […] Ellman’s reagent, 5,5′-dithiobis(2-nitrobenzoic acid) (DTNB), was freshly prepared in sodium phosphate buffer (dibasic; pH 7.0) and 8 μL (0.2 mM) added to the incubation mixture. To initiate the reaction, 20 μL (1 mM) of the AChE substrate, acetylthiocholine iodide was added making a total volume of 200 μL in each well and the absorbance readings were obtained using the UV-Visible spectrophotometer at 412 nm. Propoxur was kept as a positive control on the basis of having both AChE and larvicidal activities, while DMSO was used as a negative control. […] However, the insecticide propoxur was also assessed against this target to determine AChE selectivity between electric eel and Anopheles and subsequent comparison with the test compounds.
# (§2) All in vitro and in vivo assays were performed in triplicate.
# An. arabiensis AChE = An. arabiensis AChE (Anopheles gambiae, UniProt Q869C3); assay: as above; type: biochemical
# Protocol: as §1, §2
# An. funestus AChE = assay: as above; type: biochemical; details: read-out: Anopheles AChE inhibition IC50 ± SE (95% confidence interval range)
# Protocol: as §1, §2
# [1] = tested on: An. arabiensis (KWAG) larvae; assay: Larvicidal assay (WHO bioassay for mosquito larvicides); details: for LC50: Anopheles arabiensis, read-out: Larvicidal LC50 (95% confidence interval range)
# Excerpt: (§3) The laboratory-reared colonies of An. funestus (FUMOZ), An. arabiensis (KWAG), An. gambiae (COGS) and An. coluzzii (G3) were used for larvicidal and AChE screening assays. These are common Anopheles species responsible for malaria transmission in Africa. These colonies were maintained under standard insectary conditions as reported by Hunt et al. and Zengenene et al.. FUMOZ was first collected from Mozambique in 2000 and has a low-level intensity of pyrethroid and carbamate resistance. KWAG was collected from KwaZulu-Natal (South Africa) in 2005 and has shown resistance to pyrethroids and the organochloride, dichloro-diphenyl-trichloroethane (DDT).
# (§4) The incubation mixture was performed in a total volume of 250 mL of deionized water under 27°C and humidity ≥78%. The test compounds were dissolved in DMSO and assessed for larvicidal activity at 10 times increasing concentrations from 0.0005 μM to 500 μM. Propoxur, a standard larvicide and an AChE agent, was used as a positive control, while DMSO was employed for the negative vehicle control. Larval mortality was recorded in 24, 48 and 72 hours and larvae were fed with protein dog food at day 0 and after every mortality counting.
# as §2
# [2] = tested on: An. funestus (FUMOZ) larvae; assay: as above; details: read-out: Larvicidal LC50 (95% confidence interval range); An. funestus (FUMOZ) third-instar larvae
# Excerpt: as §3, §4, §2
# [3] = tested on: An. gambiae (COGS) larvae; assay: as above; details: Anopheles gambiae, read-out: Larvicidal LC50 (95% confidence interval range)
# Excerpt: as §3, §4, §2
# An. coluzzii (G3) larvae = assay: as above; details: read-out: Larvicidal LC50 (95% confidence interval range); An. coluzzii (G3) third-instar larvae
# Excerpt: as §3, §4, §2
# electric eel AChE = electric eel AChE (Electrophorus electricus, UniProt O42275); assay: AChE assay (modified Ellman assay), electric eel AChE; type: biochemical
# Protocol: as §1, §2
# Artemia franciscana = details: read-out: Brine shrimp LC50 (95% confidence interval); Artemia franciscana nauplii, 24 h
# Protocol: as §2
# [4] = An. gambiae homogenate, read-out: Anopheles AChE inhibition IC50 ± SE (95% confidence interval range)
# [5] = An. arabiensis homogenate, read-out: Anopheles AChE inhibition IC50 ± SE (95% confidence interval range)
# [6] = read-out: Electric eel AChE inhibition IC50 ± SE (95% confidence interval range)
# An. arabiensis AChE, sequence (Q869C3 162-698 limits assumed): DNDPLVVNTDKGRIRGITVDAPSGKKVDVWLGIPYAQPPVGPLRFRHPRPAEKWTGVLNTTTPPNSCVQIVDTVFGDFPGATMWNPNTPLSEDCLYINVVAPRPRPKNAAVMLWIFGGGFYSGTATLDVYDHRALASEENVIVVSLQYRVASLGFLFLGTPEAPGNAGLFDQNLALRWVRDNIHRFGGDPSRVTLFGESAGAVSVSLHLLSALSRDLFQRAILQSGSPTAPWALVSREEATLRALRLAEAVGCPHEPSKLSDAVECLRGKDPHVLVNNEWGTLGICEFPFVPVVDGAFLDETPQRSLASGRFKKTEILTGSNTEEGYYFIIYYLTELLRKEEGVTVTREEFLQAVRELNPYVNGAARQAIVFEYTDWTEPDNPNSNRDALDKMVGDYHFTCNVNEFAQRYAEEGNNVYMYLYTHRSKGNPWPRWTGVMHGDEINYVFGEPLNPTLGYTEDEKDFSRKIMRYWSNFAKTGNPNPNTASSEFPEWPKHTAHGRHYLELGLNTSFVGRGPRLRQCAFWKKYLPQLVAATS
# T1 sequence (Q869C3 39-737): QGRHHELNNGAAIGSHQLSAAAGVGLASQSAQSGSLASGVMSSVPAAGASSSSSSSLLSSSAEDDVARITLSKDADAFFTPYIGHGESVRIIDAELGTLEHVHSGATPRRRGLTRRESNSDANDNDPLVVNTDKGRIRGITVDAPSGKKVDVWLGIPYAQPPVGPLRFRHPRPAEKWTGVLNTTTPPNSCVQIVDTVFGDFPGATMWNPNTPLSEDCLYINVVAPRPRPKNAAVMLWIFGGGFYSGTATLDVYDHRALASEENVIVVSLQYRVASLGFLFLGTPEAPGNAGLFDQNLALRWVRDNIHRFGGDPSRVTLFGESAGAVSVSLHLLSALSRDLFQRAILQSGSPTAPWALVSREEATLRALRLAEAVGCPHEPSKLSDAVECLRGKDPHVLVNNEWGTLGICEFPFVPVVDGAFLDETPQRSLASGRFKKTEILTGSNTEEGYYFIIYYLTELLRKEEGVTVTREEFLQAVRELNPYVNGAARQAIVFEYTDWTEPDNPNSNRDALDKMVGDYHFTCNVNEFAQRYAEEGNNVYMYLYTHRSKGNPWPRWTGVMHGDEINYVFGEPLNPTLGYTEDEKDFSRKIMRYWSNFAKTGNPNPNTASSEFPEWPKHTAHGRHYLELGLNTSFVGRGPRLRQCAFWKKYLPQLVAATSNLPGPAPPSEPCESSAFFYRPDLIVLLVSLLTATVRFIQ
# electric eel AChE, sequence (O42275 24-633): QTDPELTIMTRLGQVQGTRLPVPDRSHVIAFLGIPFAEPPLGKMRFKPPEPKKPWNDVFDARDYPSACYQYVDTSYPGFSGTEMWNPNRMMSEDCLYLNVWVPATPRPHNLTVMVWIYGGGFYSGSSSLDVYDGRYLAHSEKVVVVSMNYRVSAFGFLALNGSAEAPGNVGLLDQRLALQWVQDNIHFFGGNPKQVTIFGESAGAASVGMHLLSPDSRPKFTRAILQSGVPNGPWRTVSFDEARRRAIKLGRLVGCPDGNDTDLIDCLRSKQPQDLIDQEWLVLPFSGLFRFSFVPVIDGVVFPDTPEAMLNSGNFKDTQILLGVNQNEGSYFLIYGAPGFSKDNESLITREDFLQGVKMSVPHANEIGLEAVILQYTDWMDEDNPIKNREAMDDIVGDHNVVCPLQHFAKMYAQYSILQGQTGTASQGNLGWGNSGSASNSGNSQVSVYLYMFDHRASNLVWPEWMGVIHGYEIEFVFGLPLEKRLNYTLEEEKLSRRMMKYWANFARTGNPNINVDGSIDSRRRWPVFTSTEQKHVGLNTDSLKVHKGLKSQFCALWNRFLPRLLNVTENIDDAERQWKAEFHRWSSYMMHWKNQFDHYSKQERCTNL
SMILES,IC50 (An. gambiae AChE) [µM],IC50 (An. arabiensis AChE) [µM],IC50 (An. funestus AChE) [µM],LC50 [1] [µM],LC50 [2] [µM],LC50 [3] [µM],LC50 (An. coluzzii (G3) larvae) [µM],IC50 (electric eel AChE) [µM],IC50 (An. gambiae AChE; [4]) [µM],IC50 (An. arabiensis AChE; [5]) [µM],IC50 (electric eel AChE; [6]) [µM],Fold more potent than propoxur for An. arabiensis larval toxicity ([1]; LC50 ratio versus propoxur),LC50 (Artemia franciscana) [µM]
"CNC(=O)Oc1ccccc1OC(C)C [Propoxur, propoxur, reference compound]",26.1 ± 6.21,0.78 ± 0.16,0.89 ± 0.2,8.77,9.9,64,62.7,1.28 ± 0.35,–,–,–,–,–
"O=C(NCCN1CCOCC1)C1CCN(Cc2ccccc2)CC1 [derivative 1, 1-benzyl-N-(2-morpholinoethyl) piperidine-4-carboxamide]",–,–,> 100,> 100,2.65,> 100,> 100,–,48.9 ± 10.5,> 100,> 100,–,–
"O=C(Nc1nccs1)C1CCN(Cc2ccccc2)CC1 [derivative 2, 1-benzyl-N-(thiazol-2-yl) piperidine-4-carboxamide]",–,–,> 100,0.88,> 100,> 100,> 100,–,> 100,6.05 ± 2.21,55.7 ± 12,about 10 fold,–
"COc1cc(CCNC(=O)C2CCN(Cc3ccccc3)CC2)cc(OC)c1OC [derivative 3, 1-benzyl-N-(3,4,5-trimethoxyphenethyl) piperidine-4-carboxamide]",–,–,–,> 100,> 100,> 100,> 100,–,–,–,–,–,–
"O=C(NCc1cccnc1)C1CCN(Cc2ccccc2)CC1 [derivative 4, 1-benzyl-N-(pyridine-3-ylmethyl) piperidine-4-carboxamide]",–,–,–,> 100,> 100,> 100,> 100,–,–,–,–,–,–
"O=C(NCc1ccco1)C1CCN(Cc2ccccc2)CC1 [derivative 5, 1-benzyl-N-(furan-2-ylmethyl) piperidine-4-carboxamide]",–,–,> 100,> 100,2.96,> 100,> 100,–,31.4 ± 7.56,> 100,> 100,–,–
"O=C(NCCc1c[nH]cn1)C1CCN(Cc2ccccc2)CC1 [derivative 6, N-[2-(1H-imidazol-4-yl)ethyl]-1-benzylpiperidine-4-carboxamide]",–,–,–,> 100,> 100,> 100,> 100,–,–,–,–,–,–
"O=C(NC1CCCc2ccccc21)C1CCN(Cc2ccccc2)CC1 (centres unmarked) [derivative 7, 1-benzyl-N-(1,2,3,4-tetrahydro-naphthalen-1-yl) piperidine-4-carboxamide]",–,–,–,> 100,> 100,> 100,> 100,–,–,–,–,–,–
"O=C(NCCN1CCCCC1)C1CCN(Cc2ccccc2)CC1 [derivative 8, 1-benzyl-N-(2-(piperidin-1-yl)ethyl)piperidine-4-carboxamide]",–,–,> 100,> 100,0.8,> 100,> 100,–,28.1 ± 6.89,> 100,88.3 ± 19.9,–,–
"O=C(NCc1ccncc1)C1CCN(Cc2ccccc2)CC1 [derivative 9, 1-benzyl-N-(pyridine-4-ylmethyl) piperidine-4-carboxamide]",–,–,–,> 100,> 100,> 100,> 100,–,–,–,–,–,–
[K+].[K+].[O]=[Cr](=[O])([O-])[O][Cr](=[O])(=[O])[O-] [potassium dichromate],–,–,–,–,–,–,–,–,–,–,–,–,0.004

# From PMC9645637 (PLOS ONE, 2022)
